Results taken from patent US10597388B2, “Pyridazinone herbicides” (FMC CORPORATION, priority 2014, dated 2020).

Columns and labels:
Format in all cases: in vivo
kochia (Kochia scoparia) = assay: Test C greenhouse herbicide test, postemergence
Procedure, shortened: (§1)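 Steps: pot plants in peat-based medium; spray postemergence at 1- to 4-leaf stage; hold in greenhouse 13 to 15 d; score visually against controls from 0 (no effect) to 100 (complete control).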

[1] = system: oat, wild (wild oat, Avena fatua); assay: Test C greenhouse herbicide test, postemergence
Procedure, shortened: as §1

[2] = system: wheat (winter wheat, Triticum aestivum); assay: Test C greenhouse herbicide test, pre- and postemergence
Source text: (§2) Seeds of plant species selected from blackgrass (Alopecurus myosuroides), ryegrass, Italian (Italian ryegrass, Lolium multiflorum), wheat (winter wheat, Triticum aestivum), galium (catchweed bedstraw, Galium aparine), corn (Zea mays), large crabgrass, large (large crabgrass, Digitaria sanguinalis), foxtail, giant (giant foxtail, Setaria faberii), johnsongrass (Sorghum halepense), lambsquarters (Chenopodium album), morningglory (Ipomoea coccinea), nutsedge, yellow (yellow nutsedge, Cyperus esculentus), pigweed (Amaranthus retroflexus), ragweed (common ragweed, Ambrosia elatior), soybean (Glycine max), barnyardgrass (Echinochloa crus-galli), oilseed rape (Brassica napus), waterhemp (common waterhemp, Amaranthus rudis), and velvetleaf (Abutilon theophrasti) were planted into a blend of loam soil and sand and treated preemergence with test chemicals formulated in a non-phytotoxic solvent mixture which included a surfactant.
(§3) At the same time, plants selected from these crop and weed species and also chickweed (common chickweed, Stellaria media), kochia (Kochia scoparia), and oat, wild (wild oat, Avena fatua), were planted in pots containing Redi-Earth® planting medium (Scotts Company, 14111 Scottslawn Road, Marysville, Ohio 43041) comprising spaghnum peat moss, vermiculite, wetting agent and starter nutrients and treated with postemergence applications of test chemicals formulated in the same manner. Plants ranged in height from 2 to 18 cm (1- to 4-leaf stage) for postemergence treatments. Treated plants and controls were maintained in a greenhouse for 13 to 15 d, after which time all species were compared to controls and visually evaluated. Plant response ratings, summarized in Table C, are based on a scale of 0 to 100 where 0 is no effect and 100 is complete control. A dash (-) response means no test result.

[3] = system: pigweed (Amaranthus retroflexus); assay: as above
Source text: as §2, §3

[4] = system: barnyardgrass (Echinochloa crus-galli); assay: as above
Source text: as §2, §3

[5] = system: johnsongrass (Sorghum halepense); assay: as above
Source text: as §2, §3

[6] = system: crabgrass, large (large crabgrass, Digitaria sanguinalis); assay: as above
Source text: as §2, §3

[7] = system: blackgrass (Alopecurus myosuroides); assay: as above
Source text: as §2, §3

[8] = system: galium (catchweed bedstraw, Galium aparine); assay: as above
Source text: as §2, §3

[9] = system: velvetleaf (Abutilon theophrasti); assay: as above
Source text: as §2, §3

corn (Zea mays) = assay: as above
Source text: as §2, §3

[10] = system: ragweed (common ragweed, Ambrosia elatior); assay: as above
Source text: as §2, §3

[11] = system: morningglory (Ipomoea coccinea); assay: as above
Source text: as §2, §3

[12] = system: waterhemp (common waterhemp, Amaranthus rudis); assay: as above
Source text: as §2, §3

[13] = system: oilseed rape (Brassica napus); assay: as above
Source text: as §2, §3

soybean (Glycine max) = assay: as above
Source text: as §2, §3

[14] = system: foxtail, giant (giant foxtail, Setaria faberii); assay: as above
Source text: as §2, §3

[15] = Postemergence, 31 g ai/ha, 0 to 100 scale (0 no effect, 100 complete control)
[16] = Postemergence, 125 g ai/ha, scale 0 to 100, 0 is no effect, 100 is complete control
[17] = Postemergence, 250 g ai/ha, scale 0 to 100, 0 no effect, 100 complete control, 13 to 15 d
[18] = postemergence, 62 g ai/ha, scale 0 to 100, 0 no effect, 100 complete control
[19] = Preemergence, 31 g ai/ha, scale 0 to 100, 0 is no effect, 100 is complete control
[20] = Preemergence, 62 g ai/ha, scale 0 to 100, 0 is no effect, 100 is complete control
[21] = Preemergence, 125 g ai/ha, scale 0 to 100, 0 is no effect, 100 is complete control
[22] = Preemergence, 250 g ai/ha, scale 0 to 100 (0 no effect, 100 complete control)

COc1nn(C)c(=O)c(-c2c(C)ccc3ccccc23)c1OC(=O)OC(C)C [Compound 36]
Kochia plant response rating (kochia (Kochia scoparia); [15]): 50
Plant response rating, Kochia (kochia (Kochia scoparia); [16]): 55
Plant response rating, Kochia (kochia (Kochia scoparia); [17]): 90
Kochia plant response rating (kochia (Kochia scoparia); [18]): 55
Oat, Wild plant response rating [1, 15]: 50
Plant response rating, Oat, Wild [1, 16]: 65
Plant response rating, Oat, Wild [1, 17]: 85
Oat, Wild plant response rating [1, 18]: 60
Wheat plant response rating [2, 15]: 0
Plant response rating, Wheat [2, 16]: 0
Plant response rating, Wheat [2, 17]: 5
Plant response rating, Wheat [2, 19]: 0
Plant response rating, Wheat [2, 20]: 0
Plant response rating, Wheat [2, 21]: 0
Wheat plant response rating [2, 22]: 0
Wheat plant response rating [2, 18]: 0
Pigweed plant response rating [3, 15]: 70
Plant response rating, Pigweed [3, 16]: 95
Plant response rating, Pigweed [3, 17]: 100
Plant response rating, Pigweed [3, 19]: 90
Plant response rating, Pigweed [3, 20]: 100
Plant response rating, Pigweed [3, 21]: 100
Pigweed plant response rating [3, 22]: 100
Pigweed plant response rating [3, 18]: 85
Barnyardgrass plant response rating [4, 15]: 15
Plant response rating, Barnyardgrass [4, 16]: 35
Plant response rating, Barnyardgrass [4, 17]: 40
Plant response rating, Barnyardgrass [4, 19]: 10
Plant response rating, Barnyardgrass [4, 20]: 25
Plant response rating, Barnyardgrass [4, 21]: 65
Barnyardgrass plant response rating [4, 22]: 70
Barnyardgrass plant response rating [4, 18]: 25
Johnsongrass plant response rating [5, 15]: 0
Plant response rating, Johnsongrass [5, 16]: 5
Plant response rating, Johnsongrass [5, 17]: 5
Plant response rating, Johnsongrass [5, 19]: 0
Plant response rating, Johnsongrass [5, 20]: 5
Plant response rating, Johnsongrass [5, 21]: 5
Johnsongrass plant response rating [5, 22]: 5
Johnsongrass plant response rating [5, 18]: 5
Crabgrass, Large plant response rating [6, 15]: 25
Plant response rating, Crabgrass, Large [6, 16]: 25
Plant response rating, Crabgrass, Large [6, 17]: 35
Plant response rating, Crabgrass, Large [6, 19]: 70
Plant response rating, Crabgrass, Large [6, 20]: 20
Plant response rating, Crabgrass, Large [6, 21]: 20
Crabgrass, Large plant response rating [6, 22]: 65
Crabgrass, Large plant response rating [6, 18]: 30
Blackgrass plant response rating [7, 15]: 5
Plant response rating, Blackgrass [7, 16]: 5
Plant response rating, Blackgrass [7, 17]: 20
Plant response rating, Blackgrass [7, 19]: 0
Plant response rating, Blackgrass [7, 20]: 30
Plant response rating, Blackgrass [7, 21]: 20
Blackgrass plant response rating [7, 22]: 30
Blackgrass plant response rating [7, 18]: 5
Galium plant response rating [8, 15]: 90
Plant response rating, Galium [8, 16]: 95
Plant response rating, Galium [8, 17]: 95
Plant response rating, Galium [8, 19]: 100
Plant response rating, Galium [8, 20]: 100
Plant response rating, Galium [8, 21]: 100
Galium plant response rating [8, 22]: 100
Galium plant response rating [8, 18]: 95
Velvetleaf plant response rating [9, 15]: 65
Plant response rating, Velvetleaf [9, 16]: 95
Plant response rating, Velvetleaf [9, 17]: 95
Plant response rating, Velvetleaf [9, 19]: 55
Plant response rating, Velvetleaf [9, 20]: 80
Plant response rating, Velvetleaf [9, 21]: 85
Velvetleaf plant response rating [9, 22]: 90
Velvetleaf plant response rating [9, 18]: 85
Corn plant response rating (corn (Zea mays); [15]): 0
Plant response rating, Corn (corn (Zea mays); [16]): 5
Plant response rating, Corn (corn (Zea mays); [17]): 5
Plant response rating, Corn (corn (Zea mays); [19]): 0
Plant response rating, Corn (corn (Zea mays); [20]): 0
Plant response rating, Corn (corn (Zea mays); [21]): 0
Corn plant response rating (corn (Zea mays); [22]): 0
Corn plant response rating (corn (Zea mays); [18]): 0
Ragweed plant response rating [10, 15]: 90
Plant response rating, Ragweed [10, 16]: 95
Plant response rating, Ragweed [10, 17]: 95
Plant response rating, Ragweed [10, 19]: 85
Plant response rating, Ragweed [10, 20]: 90
Plant response rating, Ragweed [10, 21]: 95
Ragweed plant response rating [10, 22]: 95
Ragweed plant response rating [10, 18]: 90
Morningglory plant response rating [11, 15]: 90
Plant response rating, Morningglory [11, 16]: 98
Plant response rating, Morningglory [11, 17]: 100
Plant response rating, Morningglory [11, 19]: 80
Plant response rating, Morningglory [11, 20]: 80
Plant response rating, Morningglory [11, 21]: 90
Morningglory plant response rating [11, 22]: 95
Morningglory plant response rating [11, 18]: 98
Waterhemp plant response rating [12, 15]: 85
Plant response rating, Waterhemp [12, 16]: 95
Plant response rating, Waterhemp [12, 17]: 98
Plant response rating, Waterhemp [12, 19]: 100
Plant response rating, Waterhemp [12, 20]: 100
Plant response rating, Waterhemp [12, 21]: 100
Waterhemp plant response rating [12, 22]: 100
Waterhemp plant response rating [12, 18]: 95
Oilseed Rape plant response rating [13, 15]: 40
Plant response rating, Oilseed Rape [13, 16]: 50
Plant response rating, Oilseed Rape [13, 17]: 90
Plant response rating, Oilseed Rape [13, 19]: 50
Plant response rating, Oilseed Rape [13, 20]: 60
Plant response rating, Oilseed Rape [13, 21]: 60
Oilseed Rape plant response rating [13, 22]: 95
Oilseed Rape plant response rating [13, 18]: 40
Soybean plant response rating (soybean (Glycine max); [15]): 0
Plant response rating, Soybean (soybean (Glycine max); [16]): 5
Plant response rating, Soybean (soybean (Glycine max); [17]): 15
Plant response rating, Soybean (soybean (Glycine max); [19]): 100
Plant response rating, Soybean (soybean (Glycine max); [20]): 0
Plant response rating, Soybean (soybean (Glycine max); [21]): 30
Soybean plant response rating (soybean (Glycine max); [22]): 20
Soybean plant response rating (soybean (Glycine max); [18]): 0
Foxtail, Giant plant response rating [14, 15]: 30
Plant response rating, Foxtail, Giant [14, 16]: 70
Plant response rating, Foxtail, Giant [14, 17]: 80
Plant response rating, Foxtail, Giant [14, 19]: 75
Plant response rating, Foxtail, Giant [14, 20]: 75
Plant response rating, Foxtail, Giant [14, 21]: 85
Foxtail, Giant plant response rating [14, 22]: 85
Foxtail, Giant plant response rating [14, 18]: 55
